In ChEMBL document CHEMBL4339208, “6-Bromoindolglyoxylamido derivatives as antimicrobial agents and antibiotic enhancers” (Bioorg Med Chem, 2019):
Converted amounts (≈) assume the structure as drawn. The source made the active and inactive calls. No cut-off for these calls is given here.

How the values were obtained:
Cryptococcus neoformans [1] = test: Antifungal activity against Cryptococcus neoformans ATCC 208821 at 32 ug/ml measured after 36 hrs by resazurin dye based assay; assay type: functional, organism-based
Acinetobacter baumannii [2] = test: Antibacterial activity against Acinetobacter baumannii ATCC 19606 measured after 18 hrs by resazurin dye based assay; assay type: functional; settings: ATCC 19606 = CIP 70.34 = JCM 6841, 18 h
L6 = test: Cytotoxicity against rat L6 cells measured after 72 hrs by alamar blue assay; assay type: cell-based; settings: L6, 72 h
Staphylococcus aureus [3] = test: Antibacterial activity against Staphylococcus aureus ATCC 25923 measured after 18 hrs by broth dilution method; assay type: functional; settings: ATCC 25923, 18 h
Escherichia coli = test: Antibacterial activity against Escherichia coli ATCC 25922 measured after 18 hrs by broth dilution method; assay type: functional; settings: ATCC 25922, 18 h
Cryptococcus neoformans [4] = test: Antifungal activity against Cryptococcus neoformans ATCC 208821 measured after 36 hrs by resazurin dye based assay; assay type: functional; settings: ATCC 208821, 36 h
Klebsiella pneumoniae [5] = test: Antibacterial activity against Klebsiella pneumoniae ATCC 700603 at 32 ug/ml measured after 18 hrs by resazurin dye based assay; assay type: functional, organism-based
Erythrocyte [6] = test: Hemolytic activity against human RBC at 32 ug/ml incubated for 10 mins under shaking condition measured after 1 hr; assay type: ADME, cell-based
Klebsiella pneumoniae [7] = test: Antibacterial activity against Klebsiella pneumoniae ATCC 700603 measured after 18 hrs by resazurin dye based assay; assay type: functional; settings: Klebsiella pneumoniae, 700603, 18 h
Pseudomonas aeruginosa [8] = test: Potentiation of doxycycline-induced antibacterial activity against Pseudomonas aeruginosa ATCC 27853 assessed as concentration required to restore 2 ug/ml doxycycline activity measured after 18 hrs; assay type: functional
[9] = Cytotoxicity against HEK293 cells measured after 20 hrs by resazurin dye based fluorescence assay; assay type: cell-based, Homo sapiens; settings: human, HEK293 cells
Pseudomonas aeruginosa [10] = test: Antibacterial activity against Pseudomonas aeruginosa ATCC 27853 measured after 18 hrs by broth dilution method; assay type: functional; settings: ATCC 27853, 18 h
Candida albicans [11] = test: Antifungal activity against Candida albicans ATCC 90028 measured after 36 hrs; assay type: functional; settings: ATCC 90028, 36 h
Acinetobacter baumannii [12] = test: Antibacterial activity against Acinetobacter baumannii ATCC 19606 at 32 ug/ml measured after 18 hrs by resazurin dye based assay; assay type: functional, organism-based; settings: ATCC 19606 = CIP 70.34 = JCM 6841
Erythrocyte [13] = test: Hemolytic activity against human RBC incubated for 10 mins under shaking condition measured after 1 hr; assay type: ADME, cell-based
Staphylococcus aureus [14] = test: Induction of membrane depolarization in Staphylococcus aureus ATCC 25923 measured after 15 mins by DiSC3(5) dye based spectrofluorometric method; assay type: functional, organism-based
Candida albicans [15] = test: Antifungal activity against Candida albicans ATCC 90028 at 32 ug/ml measured after 36 hrs; assay type: functional, organism-based
[16] = system: Staphylococcus intermedius; test: Antibacterial activity against Staphylococcus intermedius 1051997 measured after 18 hrs by broth dilution method; assay type: functional; settings: Staphylococcus intermedius, 1051997, 18 h

MIC (Acinetobacter baumannii [2]) [µM]	MIC (Staphylococcus aureus [3]) [µM]	MIC (Escherichia coli) [µM]	MIC (Cryptococcus neoformans [4]) [µM]	MIC (Klebsiella pneumoniae [7]) [µM]	MIC (Pseudomonas aeruginosa [10]) [µM]	MIC (Candida albicans [11]) [µM]	MIC [16] [µM]	Structure (SMILES)	Activity (Cryptococcus neoformans [1])	IC50 (L6) [µM]	Activity (Klebsiella pneumoniae [5])	Activity (Erythrocyte [6])	Activity (Pseudomonas aeruginosa [8]) [µM]	CC50 at 20 h [9] [µM]	Activity (Acinetobacter baumannii [12])	HC10 (Erythrocyte [13]) [µM]	Activity (Staphylococcus aureus [14])	Activity (Candida albicans [15])
> 33	6.4	51.4	> 33	> 33	51.4	16.5		O=C(NCCCNCCCCCCCNCCCNC(=O)C(=O)c1c[nH]c2cc(Br)ccc12)C(=O)c1c[nH]c2cc(Br)ccc12.O=C(O)C(F)(F)F.O=C(O)C(F)(F)F	inactive	4.4	inactive	Non-Toxic	12.9	10.6	inactive	> 33		
								CC(C)[C@@H](CC[C@@H](C)[C@H]1CC[C@H]2[C@@H]3[C@H](O)C[C@H]4C[C@@H](NCCCNCCCCN)CC[C@]4(C)[C@H]3CC[C@]12C)OS(=O)(=O)O									Dose-dependent effect	
> 50	3.12 (≈ 2.02 µg/mL)	> 200	50 (≈ 32.3 µg/mL)	> 50	50 (≈ 32.3 µg/mL)	> 50	3.12 (≈ 2.02 µg/mL)	O=C(NCCCCNCCCNC(=O)C(=O)c1c[nH]c2cc(Br)ccc12)C(=O)c1c[nH]c2cc(Br)ccc12		8.7	inactive	Non-Toxic	>200	2.32	inactive	> 50		inactive
> 44	> 200	> 200	> 44	> 44	> 200	> 44	12.5 (≈ 9.01 µg/mL)	O=C(NCCCOCCOCCOCCCNC(=O)C(=O)c1c[nH]c2cc(Br)ccc12)C(=O)c1c[nH]c2cc(Br)ccc12	inactive	75.4	inactive		>200	> 44	inactive			inactive
> 54	> 200	> 200	> 54	> 54	> 200	> 54	> 200	O=C(NCCCCNC(=O)C(=O)c1c[nH]c2cc(Br)ccc12)C(=O)c1c[nH]c2cc(Br)ccc12	inactive	> 150	inactive		>200	> 54	inactive			inactive
> 84	> 200	> 200	> 84	> 84	> 200	> 84	12.5 (≈ 4.75 µg/mL)	O=C(NCCN1CCOCC1)C(=O)c1c[nH]c2cc(Br)ccc12	inactive	157	inactive		>200	> 84	inactive			inactive
> 46	> 200	> 200	> 46	> 46	> 200	> 46	100 (≈ 70 µg/mL)	O=C(NCCCCCCCCCCCCNC(=O)C(=O)c1c[nH]c2cc(Br)ccc12)C(=O)c1c[nH]c2cc(Br)ccc12	inactive	89.1	inactive		>200	> 46	inactive			inactive
> 32.4	50	50	32.4	> 32.4	6.25	8.11	12.5	O=C(NCCCNCCCCCCCCNCCCNC(=O)C(=O)c1c[nH]c2cc(Br)ccc12)C(=O)c1c[nH]c2cc(Br)ccc12.O=C(O)C(F)(F)F.O=C(O)C(F)(F)F		5.6	inactive	Non-Toxic	25	6.2	inactive	> 32		
